Source: publication PMC7449215, “Caspofungin Weight-Based Dosing Supported by a Population Pharmacokinetic Model in Critically Ill Patients” (Antimicrobial Agents and Chemotherapy, 2020)

Assays:
[1] = two-compartment population pharmacokinetic model (Pmetrics NPAG) in critically ill ICU patients; type: in vivo, human; conditions: 20 ICU patients
Protocol: This study included data from a prospective study in 20 adult critically ill patients admitted to an ICU with suspected invasive candidiasis and treated with caspofungin ([6]). For more details about the study population, see our previous publication ([6]).
All patients received a loading dose of 70 mg on the first day of treatment. The subsequent dose was 50 mg for patients weighing ≤80 kg, 70 mg for patients weighing >80 kg, and 35 mg and 50 mg, respectively, for patients with moderate hepatic impairment (Child-Pugh score of 7 to 9) ([8]). Caspofungin was administered as a 1-h infusion.
As the steady state for caspofungin is reached on the second day after the loading dose, blood sampling was performed on day 3 (range, 2 to 4) ([22]). […] The rationale for this target is described in detail in our previous publication ([6]). The sampling was performed before the administration and 1, 2, 3, 4, 6, 8, 12, and 24 h after the start of the caspofungin infusion. Caspofungin plasma concentrations were measured using a validated liquid chromatography-tandem mass spectrometry assay ([30]).
The pharmacokinetic modeling, probability of target attainment, and visual predictive checks were performed using the nonparametric adaptive grid program (NPAG) in Pmetrics (version 1.5.2) for R (version 3.6.1) (Laboratory of Applied Pharmacokinetics and Bioinformatics, Los Angeles, CA) ([16]).
The covariate selection was performed using the PMstep command of Pmetrics. Each covariate was tested in a linear regression analysis on pharmacokinetic parameters to see if there was a significant effect on AIC value (P < 0.05). […] The covariates, tested with a forward addition method, were weight, age, gender, concomitant administration of prednisolone/hydrocortisone, dialysis, aspartate aminotransferase (AST), alanine aminotransferase (ALT), gamma-glutamyl transpeptidase (GGT), bilirubin, albumin, C-reactive protein, leukocyte count, and simplified acute physiology score (SAPS 3).
The models were analyzed and compared using individual and population observed versus predicted goodness-of-fit plots, AIC, BIC, and −2 log likelihood. The prediction error was evaluated using bias (mean weighted prediction error) and imprecision (bias-adjusted mean weighted squared prediction error) for both the individual and population models. During the population modeling assay, error (standard deviation) and environmental noise were considered. For this, we used error polynomials in the following equation: standard deviation = C0 + C1 × observed concentration. The value 0.05 was used for C0 and 0.08 for C1. Gamma multiplicative and lambda additive error models were tested to estimate residual error ([12], [31]).

[2] = critically ill patients; cited from earlier work
Protocol: It has been shown in healthy adults that with increasing weight, both V and clearance (CL) increase ([17]). […] Other models have also included weight as a covariate and obtained similar results ([10], [18]). Furthermore, Nguyen et al. described that caspofungin exposure was influenced by albumin concentration and body weight ([19]). During our model development, albumin was also tested ...

[3] = cited from earlier work
From the text: This study has some limitations. […] As caspofungin is highly protein bound (∼97%), the extent of protein binding can change in ICU patients, and the measurement of unbound fractions may be useful; however, drug assessment can be difficult, as small absolute errors translate into large relative errors in highly protein-bound drugs ([26], [27]). Second, the PK/PD target for AUC is not well established in clinical trials, and the currently used targets are based on murine model ...

[4] = doses of up to 200 mg daily for an extended period of time; cited from earlier work

SMILES: CC[C@H](C)C[C@H](C)CCCCCCCCC(=O)N[C@H]1C[C@@H](O)[C@@H](NCCN)NC(=O)[C@@H]2[C@@H](O)CCN2C(=O)[C@H]([C@H](O)CCN)NC(=O)[C@H]([C@H](O)[C@@H](O)c2ccc(O)cc2)NC(=O)[C@@H]2C[C@@H](O)CN2C(=O)[C@H]([C@@H](C)O)NC1=O [caspofungin]
- Ke, elimination rate constant, mean ([1]; 1-h infusion, plasma LC-MS/MS, final two-compartment model): 0.09 h⁻¹
- V0, volume of distribution, median ([1]; final model, V = V0 · weight/78): 7.20 L/kg
- Ke, elimination rate constant, median ([1]; final two-compartment model): 0.08 h⁻¹
- kcp, rate constant central to peripheral compartment, mean ([1]; final two-compartment model): 0.44 h⁻¹
- kcp, rate constant central to peripheral compartment, median ([1]; final two-compartment model): 0.28 h⁻¹
- kpc, rate constant peripheral to central compartment, mean ([1]; final two-compartment model): 0.46 h⁻¹
- kpc, rate constant peripheral to central compartment, median ([1]; final two-compartment model): 0.34 h⁻¹
- CL [2]: 0.54 L/h
- V [2]: 7.03 L
- protein bound [3]: ~97%
- tolerability [4]: good tolerability was observed, with no described dose-limiting toxicity
